Experimental data: US20120016011A1, “RNA Interference Mediated Inhibition of Connective Tissue Growth Factor (CTGF) Gene Expression Using Short Interfering Nucleic Acid (siNA)” (Merck Sharp & Dohme Corp., priority 2009, published 2012)
[invAb] = inverted abasic unit; m = 2'-O-methyl; r = 2'-OH (RNA); f = 2'-fluoro

How the values were obtained:
[1] = system: α-SMA mRNA; test: Inhibition of α-SMA mRNA induction by TGF-β1 in HLF cells; format: cell-based, human; conditions: for Inhibition of upregulation of α-SMA mRNA by TGF-β1: 10 nM siNA, FIG. 12
Method: A549 cells (ECACC, 86012804) were maintained in Dulbecco's Modified Eagle Medium (DMEM) containing 10% Fetal Calf Serum (FCS), 2 mM L-glutamine, 100 U/ml penicillin and 100 μg/ml streptomycin (all from GIBCO). Sub-confluent cultures (2.7×10^3 cells/cm^2) were seeded in collagen-coated multi-well plates (Becton Dickenson) and grown for three days. Cells were quiesced using the same medium containing 0.5% FCS, for 24 hours prior to stimulation with cytokines. Cells were incubated with 0-10 ng/ml TGF-(31 for the periods indicated. Normal Human Lung Fibroblasts (HLFs) were obtained from Lonza and maintained in Fibroblast Growth Medium supplemented with growth factors (Lonza #CC-3132); final serum concentration of medium was 2%. HLFs were treated with cytokines in serum-free medium. Normal Human Bronchial Epithelial cells (NHBEs, also obtained from Lonza) were maintained and transfected in Lonza BEBM with SingleQuots (Lonza #CC-3170). All growth factors from the kit were added, except retinoic acid. All cultures were maintained at 37° C. in a humidified incubator with 5% CO2 atmosphere.
Cells were harvested at time points appropriate for the experiment. Supernatants were removed and stored at −70° C. until analysis. Cells were washed using Dulbecco's Phosphate Buffered Saline (DPBS, GIBCO), prior to lysis. RNA lysates for Taqman analysis were produced using Promega RNA lysis buffer. All lysates were stored at −70° C. until use.
Cells were seeded on 96-well tissue culture plates (A549s and NHBEs, collagen-coated plates at densities of 5×10^3 and 1.2×10^4 respectively; HLFs on flat-bottom tissue culture plates, at 1×10^4 cells per well) in 100 μl of growth medium. […] Knockdown is calculated compared to CTGF expression of cells transfected with the universal control siNA.
RNA was isolated using a Biomek 2000 robot and Promega SV 96 Total RNA Isolation kits. cDNA was synthesised using a High Capacity cDNA Reverse Transcription Kit (Applied Biosciences) on a 96-well thermal cycler. […] Plates were analysed using an ABI Taqman RT-PCR machine, and SDS 2.2 Automation Controller software. […]

[2] = system: collagen secretion (PICP) by HLF cells; test: Pro-collagen Type I C-terminal Pro-peptide (PICP) MSD assay, collagen secretion by HLF cells; format: cell-based, human; conditions: TGF-β1 treated, vs universal control siNA, FIG. 13
Method: A Pro-collagen Type I C-terminal Pro-peptide (PICP) MSD assay was done on HLF cells transfected with siNAs and treated with TGF-β1. Supernatant from the HLF cells transfected with siNAs and treated with TGF-β1, was removed 72 hours after transfection and 48 hours after treatment. Plates and reagents (except antibodies) were purchased from Meso Scale Discovery. High bind, small spot 96 well MSD plates were spotted with 20 ng/well of the capture antibody (pro-collagen type I C-terminal pro-peptide, human PICP, Caltag Medsystmes) using a TTP LabTech Mosquito. Plates were left to dry for 48 hours before use. The MSD assay was performed as outlined: Plates were blocked with 30 mg/ml Blocker A, sealed and then shook on a plate shaker for 1 hour at RT. Plates were washed 3× with MSD Tris wash buffer. 25 μl of the supernatants were added for 1 hour on a plate shaker, plates were washed as before. The detection antibody (Anti-pro-collagen type I C-terminal pro-peptide, human PICP, Caltag Medsystmes Ltd) was diluted to 800 ng/ml in 10 mg/ml blocker A solution. This antibody had previously been Sulfo-Tagged using Sulfo-Tag NHS Ester (MSD) according to manufacturer's instructions. 25 μl of the diluted sulfo-tagged detection antibody was added, and left as before on a plate shaker for 1 hour. […] 150 μl of 1× Read buffer T was added per well, and the plates read on the MSD sector reader. […]

Substance | Inhibition of upregulation of α-SMA mRNA by TGF-β1 [1] | Collagen secretion (PICP secretion) induced by TGF-β1 [2] | α-SMA expression levels relative to untreated cells ([1]; 5 and 10 ng/ml TGF-β1)
48048-DC: siNA duplex; sense SEQ ID NO: 61 B GAuAGcAucuuAuAcGAGu TTB; antisense SEQ ID NO: 62 ACUcGuAuAAGAuGcuAucUU (sense GAUAGCAUCUUAUACGAGUTT; antisense ACUCGUAUAAGAUGCUAUCUU; sense: DNA at AGT, 2'-fluoro at CU, [invAb] at 5' end, 3' end, backbone not given here; antisense: sugars from the 5' end rrrfmfmfmmmmfmffmffmm, backbone not given here) | consistent but not significant knockdown of α-SMA | returned the levels of PICP secretion to near basal levels | –
48042-DC: siNA duplex; sense SEQ ID NO: 49 B GAcAuuAAcucAuuAGAcu TTB; antisense SEQ ID NO: 50 AGUcuAAuGAGuuAAuGucUU (sense GACAUUAACUCAUUAGACUTT; antisense AGUCUAAUGAGUUAAUGUCUU; sense: DNA at AGT, 2'-fluoro at CU, [invAb] at 5' end, 3' end, backbone not given here; antisense: sugars from the 5' end rrrffmmfmmmffmmfmffmm, backbone not given here) | significantly inhibited the upregulation of α-SMA | returned the levels of PICP secretion to near basal levels | comparable to untreated cells
